≈ marks a conversion by molar mass, not a printed value. Read-outs that look alike come from different tables or passages of the source. Marks after values point to notes of the source that are not given here. Where a SMILES comes first, the peptide text is derived from it. Where no end group is shown, it is not given here. [ ]: non-standard residue; d: D form. Phe(ol) = N[C@H](CO)Cc1ccccc1; Dab = NCC[C@H](N)C(=O)O; Dap = NC[C@H](N)C(=O)O; Aib = CC(C)(N)C(=O)O
Experiments:
S. mutans Ingbritt [1] = test system: S. mutans Ingbritt
Description: (§1) The bacterial strains; Fusobacterium nucleatum ATCC 25586, Streptococcus mutans Ingbritt, Staphylococcus aureus (MSSA) ATCC 29213; Staphylococcus aureus (MRSA) ATCC 43300; Enterococcus faecalis ATCC 29212; Enterobacter aerogenes ATCC 13048; Pseudomonas aeruginosa strain PAO1-LAC, ATCC 47085; Klebsiella pneumoniae ATCC 13883; Acinetobacter baumannii strain 2208, ATCC 19606; Escherichia coli ATCC 25922 lyophilised or glycerol stocks were obtained from the culture collection of the Oral Health Cooperative Research Centre, The Melbourne Dental School, University of Melbourne, Australia. These strains were selected for this study as they are widely used in antimicrobial studies and are considered to be important pathogens and major targets for antibiotic resistant studies. Bacteria were grown aerobically and maintained by passage at ambient temperature (E. coli, K. pneumoniae, A. baumannii and S. aureus strains) or at 37°C (P. aeruginosa, E. faecalis and E. aerogenes) on horse blood agar (10% v/v defibrinated horse blood, 4.4% w/v Oxoid Blood Agar Base No. 2). S. mutans and F. nucleatum were grown anaerobically (MK3 anaerobic workstation, Don Whitley Scientific Limited, England) and maintained by passage at 37°C on Todd Hewitt agar (3.6% w/v Oxoid Todd-Hewitt Broth, 1.5% w/v sucrose, 1.5% w/v BactoTM Agar, 0.8% w/v Oxoid Yeast Extract) or horse blood agar, respectively. For the antimicrobial peptide assays a 20 mL starter culture was produced by taking single colonies from blood or Todd Hewitt agar plates, respectively, to inoculate either: Luria Broth (LB; 1% w/v BactoTM Tryptone, 1% w/v NaCl, 0.5% w/v Oxoid Yeast Extract, pH 7.5, Thermo Scientific Pty, Ltd, Sydney, Australia) for bacteria; E. coli, K. pneumoniae, P. aeruginosa, A. baumannii, E. faecalis, E. aerogenes and S. aureus which were grown aerobically at 37°C, or Todd Hewitt broth (3.6% w/v Oxoid Todd-Hewitt Broth, 1.5% w/v sucrose, 0.8% w/v Oxoid Yeast 9 Extract) for S. mutans, or Brain Heart Infusion broth (BHI; 3.7% w/v Oxoid BHI, 0.05% w/v L-cysteine) for F. nucleatum which were both grown anaerobically at 37°C. After overnight incubation, 0.5–2.0 mL of the starter culture was used to inoculate the appropriate fresh broth (200 mL) and growth monitored at 650 nm using a spectrophotometer (model 275E; Perkin-Elmer, Sydney, Australia) with culture purity checked by microscopic examination and culture. Bacteria were harvested during late exponential growth phase and viability and bacteria/mL determined using a BacLight viability kit (Invitrogen, Sydney, Australia) and a Quanta SC-MPL flow cytometer (Beckman coulter Pty, Ltd, Sydney, Australia).
(§2) Antibacterial assays were undertaken to determinate the minimum inhibitory concentration (MIC), minimum bactericidal concentration (MBC) and minimum membrane disruptive concentration (MDC) of each of the antimicrobial peptides (AMP) and AMP analogues (S1 Table). For each bacterim a stock solution (2.5 × 10^6 cells/mL) in the respective media was made and an aliquot incubated with AMPs within 15 minutes from viable cell count and stock preparation. All AMPs were dissolved in DMSO and a 500 μM stock solution prepared by adding the respective media and serial dilutions (250–0.244 μM) of the AMP in media (100 μL/well) made just prior addition of bacteria. […] One hundred microliter aliquots of the bacterial stock solution (2.5 × 10^5 cells/well) were added to the AMP serial dilutions and incubated at 37°C for 90 min. Assay preparation and incubations were conducted in aerobic or anaerobic conditions dependent on the bacteria. Bacteria were also incubated in the absence of AMP to serve as a growth control for the assay. After the 90 minute incubation period the antimicrobial activity (MIC, MBC and MDC) was determined as follows;
(§3) For determination of MBC, the CLSI protocol was followed, with the modifications being that due to the rapid action of the AMPs the assay incubation time was shortened from 16–20 hours to 90 minutes.

F. nucleatum ATCC 25586 [2] = test system: F. nucleatum ATCC 25586
Description: as §1, §2, §3

S. mutans Ingbritt [3] = test: MDC, flow cytometry Syto9/PI membrane disruption assay; assay type: cell-based, Streptococcus mutans; conditions: 90 min peptide/bacteria incubation, average of 3 assays ± SD
Description: as §1
Antibacterial assays were undertaken to determinate the minimum inhibitory concentration (MIC), minimum bactericidal concentration (MBC) and minimum membrane disruptive concentration (MDC) of each of the antimicrobial peptides (AMP) and AMP analogues (S1 Table). For each bacterim a stock solution (2.5 × 10^6 cells/mL) in the respective media was made and an aliquot incubated with AMPs within 15 minutes from viable cell count and stock preparation. All AMPs were dissolved in DMSO and a 500 μM stock solution prepared by adding the respective media and serial dilutions (250–0.244 μM) of the AMP in media (100 μL/well) made just prior addition of bacteria. […] After the 90 minute incubation period the antimicrobial activity (MIC, MBC and MDC) was determined as follows;

S. mutans Ingbritt [4] = test system: S. mutans Ingbritt; remark: listed apart in the source
Description: as §1, §2
(§4) For MIC the CLSI broth microdilution assay was followed as we have previously described.

F. nucleatum ATCC 25586 [5] = test system: F. nucleatum ATCC 25586; remark: listed apart in the source
Description: as §1, §2, §4

sheep red blood cells = test: Hemolysis assay; assay type: cell-based; conditions: for Therapeutic Index (hemolysis): HC50/MDC50 (F. nucleatum), given as x : 1
Experimental: Fresh sheep red blood cells in Alsever’s solution (RBCs, Equicell, Victoria, Australia) were diluted 1 in 20 in PBS (pH 7.4), pelleted by centrifugation, and washed three times in PBS (1000 g, 10 min). The RBCs were counted using a cell counter (Coulter Particle Counter Z series, Beckman Coulter) and diluted to a final concentration of 2 × 10^7 cells/mL. […] Following incubation, the RBCs were pelleted centrifuged (1000 g, 10 min) and the amount of haemoglobin in 100 μL aliquots determined by measuring the absorbance at 405 nm using a microplate reader (PerkinElmer 1420 Multilabel Counter VICTOR3). Positive and negative controls for hemolysis were taken as RBC lysed with 0.5% Triton X-100 (1:1 v/v) and RBC suspension in PBS, respectively. The percentage of hemolysis was calculated using the following formula: % Hemolysis = [(A405 test sample—A405 negative control) / (A405 positive control—A405 negative control)] × 100
The percentage hemolysis was plotted against peptide concentration and linear regression analysis was used to determine the hemolytic concentration needed to lyse 50% (HC50) of RBCs.

[6] = S. mutans Ingbritt, 90 min peptide/bacteria incubation, CFU on agar, ≥ 99.9% reduction, average of 3 assays ± SD
[7] = F. nucleatum ATCC 25586, 90 min peptide/bacteria incubation, CFU on agar, ≥ 99.9% reduction, average of 3 assays ± SD
[8] = S. mutans Ingbritt, 90 min peptide/bacteria incubation at 37°C, then growth at OD650, average of 3 assays ± SD
[9] = F. nucleatum ATCC 25586, 2.5 × 10^5 cells/well, 90 min peptide/bacteria incubation at 37°C, then growth at OD650, average of 3 assays ± SD
[10] = sheep RBCs 2 × 10^7 cells/mL in PBS pH 7.4, 2 h at 37°C, 5% CO2, A405, linear regression, maximum peptide concentration = 1000 µM

Row | Compound | MBC (S. mutans Ingbritt [1]; [6]) | MBC (F. nucleatum ATCC 25586 [2]; [7]) [µM] | MDC (S. mutans Ingbritt [3]) | MIC (S. mutans Ingbritt [4]; [8]) | MIC (F. nucleatum ATCC 25586 [5]; [9]) [µM] | Therapeutic Index (hemolysis) (sheep red blood cells) | Hemolysis (HC50) (sheep red blood cells; pH 7.4) [µM] | MBC (S. mutans Ingbritt [1]; Ingbritt) | MIC (S. mutans Ingbritt [4]; Ingbritt, 24 h) | MBC (F. nucleatum ATCC 25586 [2]; ATCC 25586) | MIC (F. nucleatum ATCC 25586 [5]; ATCC 25586, 24 h) | Hemolysis (HC50) (sheep red blood cells; [10]) [µM] | MBC (S. mutans Ingbritt [1]; S. mutans Ingbritt, 90 min peptide/bacteria incubation, CFU on agar, ≥ 99.9% reduction, average of 3 assays ± SD, listed as Native) [µM] | MBC (F. nucleatum ATCC 25586 [2]; F. nucleatum ATCC 25586, 90 min peptide/bacteria incubation, CFU on agar, ≥ 99.9% reduction, average of 3 assays ± SD, listed as Native) [µM] | MIC (S. mutans Ingbritt [4]; S. mutans Ingbritt, 90 min peptide/bacteria incubation at 37°C, then growth at OD650, average of 3 assays ± SD, listed as Native) [µM] | MIC (F. nucleatum ATCC 25586 [5]; F. nucleatum ATCC 25586, 2.5 × 10^5 cells/well, 90 min peptide/bacteria incubation at 37°C, then growth at OD650, average of 3 assays ± SD, listed as Native) [µM]
1 | CC(=O)NC(C)(C)C(=O)N1CCC[C@H]1C(=O)NC(C)(C)C(=O)N[C@@H](C)C(=O)NC(C)(C)C(=O)N[C@@H](C)C(=O)N[C@@H](CCC(N)=O)C(=O)NC(C)(C)C(=O)N[C@H](C(=O)NC(C)(C)C(=O)NCC(=O)N[C@@H](CC(C)C)C(=O)NC(C)(C)C(=O)N1CCC[C@H]1C(=O)N[C@H](C(=O)NC(C)(C)C(=O)NC(C)(C)C(=O)N[C@@H](CCC(=O)O)C(=O)N[C@@H](CCC(N)=O)C(=O)N[C@H](CO)Cc1ccccc1)C(C)C)C(C)C [Alamethicin] (Ac-[Aib]P[Aib]A[Aib]AQ[Aib]V[Aib]GL[Aib]PV[Aib][Aib]EQ[Phe(ol)]; N-terminus assumed) | 39.8 ± 0.3 µM (≈ 78.2 µg/mL) | 18.0 ± 3.9 (≈ 35.4 µg/mL) | 41.9 ± 8.3 µM | 29.4 ± 8.2 µM (≈ 57.8 µg/mL) | 22.6 ± 12.7 (≈ 44.4 µg/mL) |  |  |  |  |  |  |  |  |  |  | 
2 | CC[C@H](C)[C@H](NC(=O)CN)C(=O)NCC(=O)N[C@@H](CCN)C(=O)N[C@@H](Cc1ccccc1)C(=O)N[C@@H](CC(C)C)C(=O)N[C@@H](Cc1c[nH]cn1)C(=O)N[C@@H](CO)C(=O)N[C@@H](C)C(=O)N[C@@H](CCN)C(=O)N[C@@H](CCN)C(=O)N[C@@H](Cc1ccccc1)C(=O)NCC(=O)N[C@@H](CCN)C(=O)N[C@@H](C)C(=O)N[C@@H](Cc1ccccc1)C(=O)N[C@H](C(=O)NCC(=O)N[C@@H](CCC(=O)O)C(=O)N[C@H](C(=O)N[C@@H](CCSC)C(=O)N[C@@H](CC(N)=O)C(=O)N[C@@H](CO)C(N)=O)[C@@H](C)CC)C(C)C [Magainin-Dab] (H-GIG[Dab]FLHSA[Dab][Dab]FG[Dab]AFVGEIMNS-NH2; N-terminus assumed) |  |  | >200^c μM |  | 6.3 ± 0.5 (≈ 14.8 µg/mL) | >182 : 1 | >1000 | >200^c μM | >200^c μM |  |  |  |  |  |  | 
3 | CC[C@H](C)[C@H](NC(=O)CN)C(=O)NCC(=O)N[C@@H](CN)C(=O)N[C@@H](Cc1ccccc1)C(=O)N[C@@H](CC(C)C)C(=O)N[C@@H](Cc1c[nH]cn1)C(=O)N[C@@H](CO)C(=O)N[C@@H](C)C(=O)N[C@@H](CN)C(=O)N[C@@H](CN)C(=O)N[C@@H](Cc1ccccc1)C(=O)NCC(=O)N[C@@H](CN)C(=O)N[C@@H](C)C(=O)N[C@@H](Cc1ccccc1)C(=O)N[C@H](C(=O)NCC(=O)N[C@@H](CCC(=O)O)C(=O)N[C@H](C(=O)N[C@@H](CCSC)C(=O)N[C@@H](CC(N)=O)C(=O)N[C@@H](CO)C(N)=O)[C@@H](C)CC)C(C)C [Magainin-Dap] (H-GIG[Dap]FLHSA[Dap][Dap]FG[Dap]AFVGEIMNS-NH2; N-terminus assumed) |  |  | >200^c μM |  |  | >67 : 1 | >1000 | >200^c μM | >200^c μM | 29.7±0.4^c μM | 18.4±9.7^c μM |  |  |  |  | 
4 | GIGKFLHSAKKFGKAFVGEIMNS-NH2 [Magainin II] | 109 ± 20.2 µM | 8.1 ± 1.3 |  | 109.3 ± 20.4 µM | 10.2 ± 1.5 |  |  |  |  |  |  | 479.5 ± 42.9 | 117.1 ± 2.3 | 7.3 ± 1.0 | 123.4 ± 9.2 | 10.1 ± 0.6
5 | GIGRFLHSARRFGRAFVGEIMNS-NH2 [Magainin-Arg] |  |  | 42.5±5.7^c μM |  |  | 100.8 : 1 | 251.9 ± 48.2 | 37.3±1.9^c μM | 41.8±6.8^c μM | 2.5±0.8^c μM | 2.5±0.3^c μM |  |  |  |  | 
6 | GIGXFLHSAXXFGXAFVGEIMNS-CONH2 [Magainin-Orn] | >200^c μM | 14.9 ± 0.2 | >200^c μM | >200^c μM | 13.1 ± 0.5 | 126.5 : 1 |  |  |  |  |  | 721.1 ± 65.3 |  |  |  | 

— PMC4795541, “A Rapid and Quantitative Flow Cytometry Method for the Analysis of Membrane Disruptive Antimicrobial Activity” (PLoS ONE, 2016)
